Values quoted from earlier work as cited in publication PMC8162882 (Chemical Science, 2020).

Details: as toxic as the natural product

Row | Substance | Toxicity relative to the natural product (6′-OH replaced by H)
1 | amanin | 25–50%
2 | amaninamide | 25–50%
